Data: US8147892B2, “Kokumi flavour compounds and use” (Givaudan SA, priority 2005, dated 2012)
“Also recorded” adds a separate entry of the source.

Key:
sensory panel [1] = assay: Sensory triangle test in chicken broth (kokumi intensity, taste profile); details: for Sensory descriptors / Kokumi intensity (0-5) / effect on mouthfulness and complexity of the taste profile: chicken broth; for Sensory descriptors / Kokumi intensity (0-5): pH 6.5; for Kokumi intensity (0-5): scale 0 to 5 (5 most intensive), negative control 2; for kokumi taste (found or not): tested as described in Example 1 (chicken broth), concentration not given
Description: (§1) Unless otherwise indicated, all sensory tests are triangle tests and are performed according to the guidelines in “Amtliche Sammlung von Untersuchungsverfahren nach §35 LMBG (Lebensmittel-und Bedarfsgegenständegesetz)”; L 00.90 7, Untersuchung von Lebensmitteln, Sensorische Prüfverfahren, Dreiecksprüfung (Übemahme der gleichnahmigen Deutschen Norm DIN ISO 4120, Ausgabe January 1995), as follows:
The sensory panel is trained to evaluate the taste of aqueous solutions (4 ml each) of the following standard taste compounds by using a triangle test as described in the literature (Wieser and Belitz, Z. Lebensm. Unters. Forsch., 1975, 159, 65-72): sucrose (40 mmol/L) for sweet taste; citric acid (5 mmol/L) for sour taste; NaCl (12 mmol/L salty taste; caffeine (2 mmol/L) for bitter taste; and monosodium glutamate (MSG; 6 mmol/L) for umami taste. For kokumi taste, a solution of glutathione (10 mmol/L) in diluted chicken broth concentrate (Goumet Bouillon Huhn, Maggi, Singen, Germany; 3 g/100 g bottled water (Evian®)) is prepared and compared to the taste of chicken broth with no glutathione added.
(§2) All sensory analyses are performed in a sensory panel room at 22-25° C. over three different sessions by a trained panel of 8 to 10 individuals.
(§3) For recording the taste profiles, samples are prepared as indicated in the examples below. Taste profiles of samples are determined in a triangle test in three different sessions. Panellists refrain from eating or drinking for at least 1 hour prior to the session. At the start of the session and before each trial, the subject rinsed with water and expectorated. The participants receive a set of two blanks and one taste sample. Liquid samples are swirled around in the mouth briefly and expectorated. Solid samples are chewed for 20 seconds and then expectorated. […] Each sample with additive is compared to two reference samples without additives. Kokumi intensity is rated from 0-5 according to a scale from 0 to 5 (with 5 most intensive). The additive is added to a consumable and the sample is homogenised. The samples are presented to the sensory panel directly after homogenisation. The sensory panel included 8 trained individuals with exception of example 2, here the panel consists of 10 trained individuals.
Chicken Broth is prepared by dilution of 3 g chicken broth concentrate (Gourmet Bouillon Huhn; Maggi, Singen, Germany) with 100 ml water (Evian). Additives are added as specified in table below.
The pH-value of all samples is adjusted to 6.5 using formic acid (0.1 moVL) or sodium hydroxide (0.1 mol/L).
For each sample, kokumi intensity is rated and panelists are asked to describe sensory characteristics.
Compounds of formula I as listed in the table below are tested in chicken broth (prepared as described in example 1) and compared to hGSH.

sensory panel [2] = assay: Sensory triangle test in ketchup; details: 2500 ppm; for Test results (sensory description vs reference): ketchup (Kraft)
Description: as §1, §2, §3
Glutathione (GSH) and homoglutathione (hGSH) are added to ketchup (Kraft) in a concentration of 2500 ppm.

sensory panel [3] = assay: Sensory triangle test in tomato juice; details: for Test results (sensory description vs reference): listed as γ-Glu-Cys-β-Ala
Description: as §1, §2, §3
Glutathione and homoglutathione are added to tomato juice (Albi, Germany) in the concentrations indicated below.

sensory panel [4] = assay: Sensory triangle test in cream cheese; details: 1000 ppm
Excerpt: The sensory panel included 8 trained individuals with exception of example 2, here the panel consists of 10 trained individuals.
The mixture is stirred until homogeneous.

[Cl-].[Na+] [NaCl]
Sensory descriptors (sensory panel [1]; additive 30 mmol/L): increased salt taste | Sensory descriptors (sensory panel [1]; additive 30 mmol/L, listed as NaCI): more salty than the negative control | Kokumi intensity (0-5) (sensory panel [1]; additive 30 mmol/L): 2 | effect on mouthfulness and complexity of the taste profile (sensory panel [1]; positive control 30 mmol/L): no effect on mouthfulness and complexity

NCCC(=O)O [β-Ala]
kokumi taste (found or not) (sensory panel [1]): not to have a kokumi taste

N[C@@H](CC(=O)O)C(=O)O [Asp]
kokumi taste (found or not) (sensory panel [1]): not to have a kokumi taste

N[C@@H](CSSC[C@H](N)C(=O)O)C(=O)O [Cys-S—S-Cys]
kokumi taste (found or not) (sensory panel [1]): not to have a kokumi taste

N[C@@H](CCC(=O)O)C(=O)O [Glu]
kokumi taste (found or not) (sensory panel [1]): not to have a kokumi taste

C[C@H](N)C(=O)O [Ala]
kokumi taste (found or not) (sensory panel [1]): not to have a kokumi taste

N[C@@H](CS)C(=O)O [Cys]
kokumi taste (found or not) (sensory panel [1]): not to have a kokumi taste

NC(=O)C[C@H](N)C(=O)O [Asn]
kokumi taste (found or not) (sensory panel [1]): not to have a kokumi taste

NC(=O)CC[C@H](N)C(=O)O [Gln]
kokumi taste (found or not) (sensory panel [1]): not to have a kokumi taste

N[C@@H](CCC(=O)N[C@@H](CS)C(=O)NCCC(=O)O)C(=O)O [hGSH, Gamma-L-glutamyl-L-cysteinyl-beta-alanine]
Test results (sensory description vs reference) (sensory panel [2]): more meaty, bouillon-like, and intensified overall taste | panelists indicating more meaty, bouillon-like, and intensified overall taste (sensory panel [2]; ketchup): 7 out of 8 panelists | panelists preferring the sample (sensory panel [3]; 250 ppm): 7 out of 8 panelists | Test results (sensory description vs reference) (sensory panel [3]; 250 ppm): more intensive and well-balanced kokumi taste | Test results (sensory description vs reference) (sensory panel [3]; 5000 ppm): even more pronounced kokumi sensation compared to an isoconcentrated glutathione sample | Sensory descriptors (sensory panel [1]; additive 10 mmol/L): increases the mouthfulness, complexity, and long lasting taste sensation | Kokumi intensity (0-5) (sensory panel [1]; additive 10 mmol/L): 4.0 | Test results (sensory description vs reference) (sensory panel [4]; cream cheese (Philadelphia, Kraft)): more mouthfulness, richness, and kokumi-like complexity | panelists finding the sample different from the reference sample and preferred (sensory panel [4]; cream cheese): 9 out of a panel of 10

N[C@@H](CCC(=O)N[C@@H](CS)C(=O)NCC(=O)O)C(=O)O [GSH, Gamma-L-glutamyl-L-cysteinyl-glycine]
Test results (sensory description vs reference) (sensory panel [2]): the observed effect is lower

N[C@@H](CCC(=O)O)C(=O)[O-].[Na+] [MSG, mono sodium glutamate]
Sensory descriptors (sensory panel [1]; additive 10 mmol/L): higher umami (taste of MSG) intensity; also recorded: Increased umami taste | effect on mouthfulness and complexity of the taste profile (sensory panel [1]; positive control 10 mmol/L): no effect on mouthfulness and complexity
